Two compounds from PMC6620326, “Structural characterization of life-extending Caenorhabditis elegans Lipid Binding Protein 8” (Scientific Reports, 2019) can be followed below.

Test [1] concerns the target T1, LBP-8 (Caenorhabditis elegans, UniProt O02324).
T1 construct: full-length residues 1-137, pMCSG7 His6-TEV, E. coli BL21(DE3); His tag cleaved by TEV
T1 sequence (O02324 1-137): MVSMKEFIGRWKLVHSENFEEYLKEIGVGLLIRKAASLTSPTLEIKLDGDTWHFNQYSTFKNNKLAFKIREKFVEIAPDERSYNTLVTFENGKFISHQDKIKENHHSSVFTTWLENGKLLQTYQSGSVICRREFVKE
Description: […],8-ANS fluorescence displacement. The test is classed as binding. The conditions noted are these: PBS pH 8.0, 37 °C, 250 nM protein, 800 nM 1,8-ANS, 1% ethanol; refolded delipidated protein; competitive with 1,8-ANS.

Test [2] concerns the target T1, LBP-8. Put plainly: differential scanning fluorimetry, SYPRO orange. The format is binding. The conditions noted are these: 20 µM ligand, 7 µM refolded protein, 1% ethanol; destabilising shift.

Each structure is given as a SMILES string.

`CCCCCCCC/C=C\CCCCCCCC(=O)NCCO` [OEA, oleoylethanolamide]: the Ki result on LBP-8 [1] is “oleic acid and OEA, and both had very similar Ki’s”. On to `CCCCCCCC/C=C\CCCCCCCC(=O)O` [OA, oleic acid], for which the “decrease in Tm vs apo” value on LBP-8 [2] is ~ 4 °C. Moreover, the Ki entry on LBP-8 [1] is “oleic acid and OEA, and both had very similar Ki’s”.
